Laboratory results: patent publication US11591323B2, “Muscarinic agonists as non-steroidal and non-opioid analgesics and methods of use thereof” (Barry University, priority 2019, dated 2023)
Where “and” joins values, the source holds several entries; their conditions need not be identical. Equal entries are not always repeated. Where two headings read alike, the source gives them in different places.

Legend:
Design in all cases: host or cells: CHO cells, stably transfected
[1] = target: T1, M3 muscarinic receptor (Homo sapiens, UniProt P20309); assay: accumulation of IPX, M3 CHO cells (M3Gq); type: cell-based; conditions: for Kd: read-out: pKA (converted); for EC50: read-out: pEC50 (converted)
[2] = target: T2, M2 muscarinic receptor (Homo sapiens, UniProt P08172); assay: inhibition of forskolin-stimulated cAMP, M2 CHO cells (M2Gi); type: cell-based; conditions: for Emax: CHO, read-out: E′MAX; for Kd: operational model, read-out: pKA (converted); for EC50: read-out: pEC50 (converted)
T2 sequence (P08172 1-466): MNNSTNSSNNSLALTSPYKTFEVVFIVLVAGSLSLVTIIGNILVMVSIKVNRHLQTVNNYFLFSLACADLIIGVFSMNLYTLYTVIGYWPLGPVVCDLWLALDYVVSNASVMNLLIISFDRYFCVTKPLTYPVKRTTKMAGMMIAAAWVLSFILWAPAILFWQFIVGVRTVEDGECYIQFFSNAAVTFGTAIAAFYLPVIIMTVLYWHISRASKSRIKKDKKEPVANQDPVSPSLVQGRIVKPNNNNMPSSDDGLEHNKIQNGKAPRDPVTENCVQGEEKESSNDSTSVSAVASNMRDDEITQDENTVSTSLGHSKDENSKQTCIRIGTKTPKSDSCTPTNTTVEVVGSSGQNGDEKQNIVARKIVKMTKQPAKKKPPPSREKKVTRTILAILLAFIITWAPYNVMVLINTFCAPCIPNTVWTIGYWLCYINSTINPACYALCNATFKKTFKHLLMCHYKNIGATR

[3] = target: T3, M4 muscarinic receptor (Homo sapiens, UniProt P08173); assay: inhibition of forskolin-stimulated cAMP, M4 CHO cells (M4Gi); type: cell-based; conditions: for Emax: CHO, read-out: E′MAX; for Kd: read-out: pKA (converted); for EC50: read-out: pEC50 (converted)
T3 sequence (P08173 1-479): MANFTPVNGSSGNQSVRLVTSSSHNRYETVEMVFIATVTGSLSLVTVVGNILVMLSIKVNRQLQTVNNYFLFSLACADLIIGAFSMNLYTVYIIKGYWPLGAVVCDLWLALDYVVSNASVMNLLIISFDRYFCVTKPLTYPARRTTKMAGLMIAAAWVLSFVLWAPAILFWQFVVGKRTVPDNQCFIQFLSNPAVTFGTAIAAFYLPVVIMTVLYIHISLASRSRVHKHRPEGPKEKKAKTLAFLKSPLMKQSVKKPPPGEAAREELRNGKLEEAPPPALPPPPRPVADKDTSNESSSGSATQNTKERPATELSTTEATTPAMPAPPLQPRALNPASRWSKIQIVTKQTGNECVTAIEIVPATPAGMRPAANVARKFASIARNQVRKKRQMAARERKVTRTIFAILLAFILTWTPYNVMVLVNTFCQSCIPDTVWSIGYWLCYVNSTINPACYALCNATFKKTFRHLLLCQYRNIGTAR

[4] = target: T4, M5 muscarinic receptor (Homo sapiens, UniProt P08912); assay: accumulation of IPX, M5 CHO cells (M5Gq); type: cell-based; conditions: for EC50: read-out: pEC50 (converted)
T4 sequence (P08912 1-532): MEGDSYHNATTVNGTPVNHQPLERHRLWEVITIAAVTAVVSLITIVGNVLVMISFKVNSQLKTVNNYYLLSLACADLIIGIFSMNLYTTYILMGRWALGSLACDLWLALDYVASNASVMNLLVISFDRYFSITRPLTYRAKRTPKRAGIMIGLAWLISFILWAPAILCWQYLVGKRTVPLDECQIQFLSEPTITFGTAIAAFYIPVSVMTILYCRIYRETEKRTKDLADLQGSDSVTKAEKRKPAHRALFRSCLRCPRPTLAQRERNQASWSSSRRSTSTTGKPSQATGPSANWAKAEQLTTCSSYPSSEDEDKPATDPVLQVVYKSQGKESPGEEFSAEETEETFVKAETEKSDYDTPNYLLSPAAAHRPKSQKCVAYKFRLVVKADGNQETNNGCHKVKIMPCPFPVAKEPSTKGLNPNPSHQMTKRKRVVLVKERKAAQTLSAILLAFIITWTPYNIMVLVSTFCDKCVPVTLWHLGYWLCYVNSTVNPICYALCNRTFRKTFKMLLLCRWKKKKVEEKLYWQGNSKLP

[5] = target: T5, M1 muscarinic receptor (Homo sapiens, UniProt P11229); assay: accumulation of inositol phosphates IPX, M1 CHO cells (M1Gq); type: cell-based; conditions: for Kd: operational model, read-out: pKA (converted); for EC50: read-out: pEC50 (converted)
T5 sequence (P11229 1-460): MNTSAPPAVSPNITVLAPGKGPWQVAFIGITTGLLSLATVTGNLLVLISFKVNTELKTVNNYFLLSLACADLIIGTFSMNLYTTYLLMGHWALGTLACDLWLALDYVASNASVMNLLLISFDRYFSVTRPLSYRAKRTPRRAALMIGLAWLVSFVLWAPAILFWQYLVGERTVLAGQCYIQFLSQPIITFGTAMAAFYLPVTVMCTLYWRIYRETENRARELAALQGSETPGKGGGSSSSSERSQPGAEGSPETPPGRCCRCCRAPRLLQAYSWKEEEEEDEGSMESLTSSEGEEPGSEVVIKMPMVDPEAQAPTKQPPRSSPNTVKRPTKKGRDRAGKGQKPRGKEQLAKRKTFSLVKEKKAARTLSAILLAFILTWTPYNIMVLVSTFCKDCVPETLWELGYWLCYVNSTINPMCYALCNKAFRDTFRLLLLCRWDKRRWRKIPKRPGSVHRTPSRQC

[6] = target: T1, M3 muscarinic receptor; assay: [3H]NMS competition binding, M3 CHO membranes; conditions: competition with 1 nM [3H]NMS; read-out: Inhibition constants (Ki) as negative logarithms, M3 (converted)
[7] = M3 (↑IPX), preferential response, Table 7
[8] = M3 (↑IPX), preferential response, Table 7, operational efficacy
[9] = M3 (↑IPX), preferential response, Table 7, operational model
[10] = M3 (↑IPX), preferential response, relative to carbachol, Tables 2, 3, 7
[11] = M3 (↑IPX), preferential response, to carbachol, Tables 2, 3, 7
[12] = M2 (↓cAMP), preferential response, Table 7
[13] = M2 (↓cAMP), preferential response, Table 7, operational efficacy
[14] = M4 (↓cAMP), preferential response, Table 7
[15] = M4 (↓cAMP), preferential response, Table 7, operational efficacy
[16] = M4 (↓cAMP), preferential response, Table 7, operational model
[17] = M4 (↓cAMP), preferential response, relative to carbachol, Tables 2, 3, 7
[18] = M4 (↓cAMP), preferential response, to carbachol, Tables 2, 3, 7
[19] = M5 (↑IPX), preferential response, Table 7
[20] = M5 (↑IPX), preferential response, relative to carbachol, Tables 2, 3, 7
[21] = M1 (↑IPX), preferential response, Table 7
[22] = M1 (↑IPX), preferential response, Table 7, operational efficacy
[23] = M1 (↑IPX), preferential response, relative to carbachol, Tables 2, 3, 7
[24] = M1 (↑IPX), preferential response, to carbachol, Tables 2, 3, 7

T1 sequence (P20309 whole entry): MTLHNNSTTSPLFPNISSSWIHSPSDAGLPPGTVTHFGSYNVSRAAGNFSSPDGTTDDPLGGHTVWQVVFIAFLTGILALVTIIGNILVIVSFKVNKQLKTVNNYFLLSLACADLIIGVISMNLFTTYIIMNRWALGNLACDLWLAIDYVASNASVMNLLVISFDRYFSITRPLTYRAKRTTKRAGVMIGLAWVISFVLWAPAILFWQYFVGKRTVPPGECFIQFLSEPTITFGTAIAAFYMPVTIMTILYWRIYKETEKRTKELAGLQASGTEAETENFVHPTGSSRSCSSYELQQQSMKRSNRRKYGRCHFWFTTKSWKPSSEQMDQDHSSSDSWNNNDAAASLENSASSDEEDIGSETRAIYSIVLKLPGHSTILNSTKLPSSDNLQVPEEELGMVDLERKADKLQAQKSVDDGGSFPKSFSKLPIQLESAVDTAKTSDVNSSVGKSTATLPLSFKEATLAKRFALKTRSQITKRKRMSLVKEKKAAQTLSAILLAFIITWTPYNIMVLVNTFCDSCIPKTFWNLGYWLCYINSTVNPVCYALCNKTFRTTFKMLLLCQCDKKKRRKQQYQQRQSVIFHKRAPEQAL

C[N+]1(Cc2cccs2)CC=CCC1.[I-] (stereo not drawn) [Compound 7A, 1-methyl-1-[(thiophen-2-yl)methyl]-1,2,3,6-tetrahydropyridin-1-ium iodide]
E′MAX [1, 7]: 3.0 ± 0.3 fold over basal | τ [1, 8]: 0.08 ± 0.01 | Kd [1, 9]: 3.16 µM | EC50 [1, 7]: 3.16 µM | RAi [1, 10]: 0.011 ± 0.001 | Δlog(τ/KA) [1, 11]: 1.94 ± 0.20 | E′MAX ([1]; M3Gq (↑IPX), Table 8): 2.6 ± 0.3 fold over basal | τ ([1]; M3Gq (↑IPX), Table 8): 0.06 ± 0.01 | RAi ([1]; M3Gq (↑IPX), Table 8, relative to carbachol): 0.0084 ± 0.0011 | Δlog(τ/KA) ([1]; M3Gq (↑IPX), Table 8, to carbachol): 2.08 ± 0.34 | EC50 ([1]; M3Gq (↑IPX), Table 8): 3.98 µM | Kd ([1]; M3Gq (↑IPX), Table 8): 3.98 µM | Emax [2, 12]: 53 ± 2% | τ [2, 13]: 1.51 ± 0.15 | Kd [2, 12]: 1 µM | EC50 [2, 12]: 0.389 µM | E′MAX ([2]; M2Gi (↓cAMP), Table 8): 53 ± 2 % inhibition | pEC50 ([2]; M2Gi (↓cAMP), Table 8): 6.41 ± 0.05 | pKA ([2]; M2Gi (↓cAMP), Table 8): 6.0 ± 0.1 | τ ([2]; M2Gi (↓cAMP), Table 8): 1.5 ± 0.2 | RAi ([2]; M2Gi (↓cAMP), Table 8, relative to carbachol): 0.140 ± 0.008 | Δlog(τ/KA) ([2]; M2Gi (↓cAMP), Table 8, to carbachol): 0.93 ± 0.09 | Emax [3, 14]: 39 ± 2% | τ [3, 15]: 0.78 ± 0.08 | Kd [3, 16]: 3.16 µM | EC50 [3, 14]: 1.78 µM | RAi [3, 17]: 0.0209 ± 0.0011 | Δlog(τ/KA) [3, 18]: 1.58 ± 0.22 | E′MAX ([3]; M4Gi (↓cAMP), Table 8): 39 ± 2 % inhibition | τ ([3]; M4Gi (↓cAMP), Table 8): 0.78 ± 0.08 | RAi ([3]; M4Gi (↓cAMP), Table 8, relative to carbachol): 0.0209 ± 0.0011 | Δlog(τ/KA) ([3]; M4Gi (↓cAMP), Table 8, to carbachol): 1.58 ± 0.22 | EC50 ([3]; M4Gi (↓cAMP), Table 8): 1.78 µM | Kd ([3]; M4Gi (↓cAMP), Table 8): 3.16 µM | E′MAX [4, 19]: 1.28 ± 0.05 fold over basal | EC50 [4, 19]: 7.94 µM | RAi [4, 20]: 0.0007 ± 0.0002 and 0.0007 ± 0.0001 | E′MAX ([4]; M5Gq (↑IPX), Table 8): 1.26 ± 0.05 fold over basal | RAi ([4]; M5Gq (↑IPX), Table 8, relative to carbachol): 0.0006 ± 0.0002 | EC50 ([4]; M5Gq (↑IPX), Table 8): 7.94 µM | E′MAX [5, 21]: 4.6 ± 0.4 fold over basal | τ [5, 22]: 0.12 ± 0.01 | Kd [5, 21]: 3.16 µM | EC50 [5, 21]: 2.63 µM | RAi [5, 23]: 0.0111 ± 0.0002 | Δlog(τ/KA) [5, 24]: 1.96 ± 0.16 | E′MAX ([5]; M1Gq (↑IPX), Table 8): 4.6 ± 0.4 fold increase | pEC50 ([5]; M1Gq (↑IPX), Table 8): 5.58 ± 0.03 | pKA ([5]; M1Gq (↑IPX), Table 8): 5.5 ± 0.1 | τ ([5]; M1Gq (↑IPX), Table 8): 0.12 ± 0.01 | RAi ([5]; M1Gq (↑IPX), Table 8, relative to carbachol): 0.012 ± 0.006 | Δlog(τ/KA) ([5]; M1Gq (↑IPX), Table 8, to carbachol): 1.93 ± 0.25 | Ki [6]: 7.94 µM

Cc1ccc(C[N+]2(C)CC=CCC2)s1.[I-] (stereo not drawn) [Compound 7B, 1-methyl-1-[(5-methylthiophen-2-yl)methyl]-1,2,3,6-tetrahydropyridin-1-ium iodide]
E′MAX [1, 7]: 4.4 ± 0.4 fold over basal | τ [1, 8]: 0.14 ± 0.01 | Kd [1, 9]: 5.01 µM | EC50 [1, 7]: 8.32 µM | RAi [1, 10]: 0.0077 ± 0.0008 | Δlog(τ/KA) [1, 11]: 2.11 ± 0.12 | Emax [2, 12]: 36 ± 1% | τ [2, 13]: 0.69 ± 0.07 | Kd [2, 12]: 1.58 µM | EC50 [2, 12]: 0.933 µM | RAi ([2]; M2 (↓cAMP), preferential response, relative to carbachol, Tables 2, 3, 7): 0.029 ± 0.002 | Δlog(τ/KA) ([2]; M2 (↓cAMP), preferential response, to carbachol, Tables 2, 3, 7): 1.48 ± 0.15 | Emax [3, 14]: 30 ± 1% | τ [3, 15]: 0.51 ± 0.05 | Kd [3, 16]: 3.98 µM | EC50 [3, 14]: 2.88 µM | RAi [3, 17]: 0.0087 ± 0.0009 | Δlog(τ/KA) [3, 18]: 1.90 ± 0.18 | E′MAX [4, 19]: 1.47 ± 0.07 fold over basal | τ ([4]; M5 (↑IPX), preferential response, Table 7, operational efficacy): 0.02 ± 0.01 | Kd ([4]; M5 (↑IPX), preferential response, Table 7, operational model, read-out: pKA (converted)): 5.01 µM | EC50 [4, 19]: 4.37 µM | RAi [4, 20]: 0.0021 ± 0.0009 | Δlog(τ/KA) ([4]; M5 (↑IPX), preferential response, to carbachol, Tables 2, 3, 7): 2.67 ± 0.41 | E′MAX [5, 21]: 3.9 ± 0.4 fold over basal | τ [5, 22]: 0.09 ± 0.01 | Kd [5, 21]: 5.01 µM | EC50 [5, 21]: 5.01 µM | RAi [5, 23]: 0.0058 ± 0.0007 | Δlog(τ/KA) [5, 24]: 2.24 ± 0.18 | Ki [6]: 5.25 µM
